We go through 3 compounds from US20060239913A1, “Peptide conjugate for magnetic resonance imaging” (priority 2003, published 2006).

pIC50: −log10 of the molar value.

As usually defined, the pIC50 is −log10 of the IC50, conventionally taken in molar units. A word on the half-life: it is the time needed for the level to fall by half in the phase considered.

Data set [1] addresses T1, human MMP-1 (Homo sapiens, UniProt P03956).
T1 construct: endogenous in cells; host or cells: human rheumatoid synovial fibroblast
T1 sequence (P03956 100-469): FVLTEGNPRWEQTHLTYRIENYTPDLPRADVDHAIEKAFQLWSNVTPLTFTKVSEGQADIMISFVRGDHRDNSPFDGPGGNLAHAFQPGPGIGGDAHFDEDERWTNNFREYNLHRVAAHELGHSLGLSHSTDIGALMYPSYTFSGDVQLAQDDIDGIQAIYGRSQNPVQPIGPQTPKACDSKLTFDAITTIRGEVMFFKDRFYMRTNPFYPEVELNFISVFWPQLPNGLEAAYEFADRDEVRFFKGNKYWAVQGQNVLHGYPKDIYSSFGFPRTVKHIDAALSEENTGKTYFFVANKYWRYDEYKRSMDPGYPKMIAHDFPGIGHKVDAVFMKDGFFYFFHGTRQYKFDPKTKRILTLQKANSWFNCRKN
To be noted: reported value; cited from earlier work.

The target in data set [2] is T2, human MMP-2 (Homo sapiens, UniProt P08253).
T2 construct: endogenous in cells; host or cells: human rheumatoid synovial fibroblast
T2 sequence (P08253 110-660): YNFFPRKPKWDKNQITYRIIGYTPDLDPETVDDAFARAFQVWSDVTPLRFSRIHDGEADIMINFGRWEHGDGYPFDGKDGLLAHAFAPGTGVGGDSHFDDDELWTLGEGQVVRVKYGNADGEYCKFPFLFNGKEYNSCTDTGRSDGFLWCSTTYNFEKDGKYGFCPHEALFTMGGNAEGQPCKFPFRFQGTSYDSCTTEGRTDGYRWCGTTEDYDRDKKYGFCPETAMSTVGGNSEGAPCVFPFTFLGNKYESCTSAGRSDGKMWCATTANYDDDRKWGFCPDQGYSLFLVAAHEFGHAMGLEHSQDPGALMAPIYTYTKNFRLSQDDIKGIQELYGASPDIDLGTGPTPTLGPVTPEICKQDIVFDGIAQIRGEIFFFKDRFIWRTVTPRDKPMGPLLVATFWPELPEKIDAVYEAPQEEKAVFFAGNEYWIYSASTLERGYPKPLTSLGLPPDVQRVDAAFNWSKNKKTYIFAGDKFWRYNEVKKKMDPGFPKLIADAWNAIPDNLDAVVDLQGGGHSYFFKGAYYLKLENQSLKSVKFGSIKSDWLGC
Conditions: reported value; cited from earlier work.

Data set [3] has as its target T3, human MMP-3 (Homo sapiens, UniProt P08254).
T3 construct: made in house; host or cells: Sf9 insect cells
Conditions: reported value; cited from earlier work.

The target of data set [4] is T1, human MMP-1. The data set is described as follows: In vitro MMP inhibition assay (fluorimetric), MMP-1. Format: biochemical. To be noted: for % inhibition of control values: mean of duplicate; for inhibitory activity on MMP-1 (in words): concentration of 1.0E-05 M. As to the method: (§1) The ability of compound B or the corresponding peptide hydroxamate to inhibit MMP-1, MMP-2 or MMP-3 activity was tested in vitro, on human enzymes. The reaction was based on the formation of a fluorescent compound produced after MMP-cleavage of a substrate (see table 1 for experimental conditions). Briefly, compound B or the peptide alone was added at 3 different concentrations to a buffer containing the MMP to test. For the control sample, the contrast agent or the peptide was replaced by water. After a pre-incubation period of 30 min at 37° C., the fluorescence intensity was measured using a microplate reader (GeminiXS, Molecular Devices), in order to detect any compound interference with the fluorimetric assay (═F1). The enzymatic reaction was then initiated by the addition of the MMP substrate and the mixture was again incubated at 37° C. After a pre-determined time, a second fluorescent measurement was performed (═F2). The enzyme activity was determined by subtracting the signal F1 from F2, and the results were expressed as a percent inhibition of the control enzyme activity.

Data set [5] addresses T3, human MMP-3. Put plainly: In vitro MMP inhibition assay (fluorimetric), MMP-3. Format: biochemical. Conditions: for % inhibition of control values: mean of duplicate. Here is the method:
as §1

Data set [6] concerns the target T2, human MMP-2. Put plainly: In vitro MMP inhibition assay (fluorimetric), MMP-2. Format: biochemical. To be noted: for % inhibition of control values: mean of duplicate; for inhibitory activity on MMP-2 (in words): concentration of 1.0E-05 M. As to the method: as §1, with “The” for “The ability of compound B or the corresponding peptide hydroxamate to inhibit MMP-1, MMP-2 or MMP-3 activity was tested in vitro, on human enzymes. The”, “Briefly, compound B or the peptide alone was added at 3 different concentrations to a buffer containing the MMP to test.” left out

Data set [7] can be described thus: Biodistribution assay in ApoE-KO mice (Gd by ICP-MS). To be noted: C57Bl/6 background, mouse, plasma, iv, 100 μmol Gd/kg, i.v., read-out: half-life of elimination in plasma. Format: in vivo. Here is the method: (§2) Animals—the tissue distribution of compound B, when compared to Gd-DOTA, was performed in ApoE-KO mice in a 100% C57Bl/6 background. The animals were bred and housed in the Animal Experiment Unit of the Center of Molecular and Vascular Biology, Leuven, Belgium, and had free access to food and water.
(§3) ApoE-KO mice of 11-12 weeks were fed a cholesterol-rich Western-type diet (Tecklad, Madison, USA) for 4 months. This model of atherosclerosis was fully characterized: it contained extensive atherosclerotic plaques in the heart and aortic arch, where the plaques occupied 34% of the total lumen area. […] Biodistribution—After the diet period, animals were matched for sex and body weight. compounfd B or Gd-DOTA was administered intravenously via the tail vein (n=7/compound), at a clinical dose of 100 μmol Gd/kg. 60 min post-injection, the animals were anaesthetized and blood was obtained via eye bleeding. The mice were then subjected to a transcardiac perfusion with heparinized saline, in order to clear the intravascular compartment from any residual circulating contrast agent. Muscle and different organs (kidney, liver) were removed, as well as some artery specimens (aortic arch, carotid arteries, thoracic aorta, abdominal aorta and femoral artery). Finally, an aliquot of the blood sample was centrifuged and the Gd^3+ contained in all the collected samples was quantified by induced coupled plasma—mass spectrometry (ICP-MS) after acidic mineralization.

Another data set has as its system ApoE-KO mice. Described as above. It is filed as in vivo. As to the method:
as §2, §3

The subject of data set [8] is atherosclerotic human sections (carotid artery). Put plainly: Ex vivo MRI and Gd quantification on human carotid endarterectomy sections. Conditions: 18 h incubation, 30 min washing. Here is the method: Samples of fresh carotid artery were obtained from patients (n=21) undergoing carotid endarterectomy. Specimen consisted of the common carotid artery, as well as the internal and external carotid arteries. The excised plaques were rinsed in ice-cold saline and they were used in the 2-4 hours following surgery.
(§4) Finally, both rabbits and human atherosclerotic segments were cut in exactly 3.0 mm-thick sections, before their contact with the contrast medium and ex vivo imaging.
Ex vivo incubation—All the slices were deposited in a 24-wells culture plate. […] After pre-determined incubation periods of 1 h, 3 h or 18 h, the slices originating from the WHHL rabbits were either immediately imaged, or subjected to a washing during 30 min, 1 h or 3 h (n=3 for each condition) in 10.0 ml of Krebs-Ringer bicarbonate buffer, with the medium being replaced every hour. […]
Detection of the contrast media by ex vivo imaging and Gd quantification—For ex vivo MRI, the aortic slices were transferred in a new 24-wells plate and embedded in a semi-solid agar-agar gel (0.8% m/v) at room temperature. […] Finally, the gel was removed from the aortic segments and the Gd contained in each precisely weighed sample was quantified by ICP-MS after acidic mineralization.

Data set [9] deals with artery slices originating from Watanabe Heritable Hyperlipidemic rabbits. Put plainly: Ex vivo MRI and Gd quantification on WHHL rabbit artery slices. To be noted: for ex vivo MRI enhancement of the sections / amount of Gd in the sections by ICP-MS (mean value): after 1 h; for ex vivo MRI enhancement of the sections: 3 h or 18 h incubation; for amount of Gd in the sections by ICP-MS (mean value): 3 h or 18 h incubation at 5×10^−4 M Gd, no washing.
Source text: Specimen preparation—Watanabe Heritable Hyperlipidemic rabbits (CAP, Olivet, France), which develop hypercholesterolemia and subsequent atherosclerosis due to a genetic deficiency of LDL receptors, were profoundly anaesthetized. After their sacrifice by exsanguination, the arterial tree, comprising the aortic arch with the beginning of the efferent arteries, as well as the thoracic aorta and the supra-renal abdominal aorta, was removed in one block and flushed with heparinized Krebs-Ringer Bicarbonate buffer (pH=7.4) in order to clean any remaining blood. The arterial specimen was then kept frozen at −20° C.; it was gently and extemporarily unfrozen for experimental purpose.
as §4
Ex vivo incubation—All the slices were deposited in a 24-wells culture plate. They were then incubated under stirring at 37° C., in 1.0 ml of Krebs-Ringer Bicarbonate buffer (pH=7.4), Gd-DOTA or compound B (at a Gd concentration of 5×10^−4 M). After pre-determined incubation periods of 1 h, 3 h or 18 h, the slices originating from the WHHL rabbits were either immediately imaged, or subjected to a washing during 30 min, 1 h or 3 h (n=3 for each condition) in 10.0 ml of Krebs-Ringer bicarbonate buffer, with the medium being replaced every hour. Regarding human samples, only the protocol which allowed the best differentiation between the compounds (i.e. an incubation period of 18 h, followed by a washing of 30 min) was applied. Afterwards, all the slices were drained and prepared for ex vivo imaging. Further the protocol was applied both regarding to lesional plaques and not lesional plaques specimens.
Specificity testing—To additionally test the specificity of the compound B uptake, we repeated the ex vivo 18 h-incubation with a new set of WHHL rabbit atherosclerotic slices which were previously incubated during 30 min with the hydroxamate peptide, at a 10 times higher concentration than COMPOUND B (i.e. 5×10^−3 M). The samples were subsequently washed during 30 min, as previously described.
Detection of the contrast media by ex vivo imaging and Gd quantification—For ex vivo MRI, the aortic slices were transferred in a new 24-wells plate and embedded in a semi-solid agar-agar gel (0.8% m/v) at room temperature. Images were performed on a 2.35 T MRI system (Biospec, Bruker, Germany), using a 7 cm inner diameter birdcage coil and a 200 mT/m insert gradient. A 3D T1w SNAP sequence was acquired with following parameters (TR/TE/α=20 ms/4.2 ms/75°, Matrix 256*256*16, resolution 235*175*1000 μm^3, duration 21′49″) to have a compromise between resolution, short duration for screening and sections localization. Finally, the gel was removed from the aortic segments and the Gd contained in each precisely weighed sample was quantified by ICP-MS after acidic mineralization.

T3 sequence (P08254 100-477): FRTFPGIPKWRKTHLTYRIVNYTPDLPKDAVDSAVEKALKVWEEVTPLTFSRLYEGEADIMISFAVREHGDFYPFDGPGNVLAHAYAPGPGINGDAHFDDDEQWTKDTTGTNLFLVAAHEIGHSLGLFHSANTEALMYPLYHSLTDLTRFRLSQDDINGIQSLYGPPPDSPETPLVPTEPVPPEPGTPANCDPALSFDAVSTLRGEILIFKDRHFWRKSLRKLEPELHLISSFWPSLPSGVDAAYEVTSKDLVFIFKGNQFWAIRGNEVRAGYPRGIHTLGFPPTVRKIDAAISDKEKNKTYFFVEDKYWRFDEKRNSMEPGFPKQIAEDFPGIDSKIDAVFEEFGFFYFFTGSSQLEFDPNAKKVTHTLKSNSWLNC

For the compound “p-aminobenzoyl-Gly-Pro-D-Leu-D-Ala-NHOH [Peptide]”, the pIC50 on human MMP-1 [1] is 6.00; at human MMP-2 [2] it was 4.52; on human MMP-3 [3], 3.82. Further, the “% inhibition of control values” was 46% on human MMP-1 [4] (MMP-1, test concentration 1.0E−05 M); 10% on human MMP-1 [4] (MMP-1, test concentration 1.0E−07 M); 9% at human MMP-1 [4] (MMP-1, test concentration 1.0E−09 M); 8% at human MMP-3 [5] (MMP-3, test concentration 1.0E−05 M); 4% on human MMP-3 [5] (MMP-3, test concentration 1.0E−07 M); 0% at human MMP-3 [5] (MMP-3, test concentration 1.0E−09 M). Also, the “% inhibition of control values” came out at 94% on human MMP-2 [6] (MMP-2, test concentration 1.0E−04 M); 68% at human MMP-2 [6] (MMP-2, test concentration 1.0E−05 M); 5% at human MMP-2 [6] (MMP-2, test concentration 1.0E−07 M). Also, on human MMP-1 [4], the “inhibitory activity on MMP-1 (in words)” value is reported as “effective”. Further, the “inhibitory activity on MMP-3 (in words)” value against human MMP-3 [5] is “no activity”. Besides, the “inhibitory activity on MMP-2 (in words)” value against human MMP-2 [6] is given as “effective”.

Regarding `CC(C)C[C@@H](NC(=O)[C@@H]1CCCN1C(=O)CNC(=O)c1ccc(NC(=S)Nc2ccc(CCC(C(=O)O)N3CCN(CC(=O)O)CCN(CC(=O)O)CCN(CC(=O)O)CC3)cc2)cc1)C(=O)N[C@@H](C)C(=O)NO` (some centres unmarked) [Compound B], in data set [7], the half-life was determined as 15 min. In addition, the “concentration in the arterial wall compared to Dotarem” value in the data set on ApoE-KO mice (artery specimen, 60 min post-injection, p<0.01) was 3-3.5 times. Moreover, the “enhancement of atherosclerotic human sections (MRI ex vivo and Gd quantification)” value in data set [8] was “able to enhance”. In data set [9] (30 min preliminary incubation with free peptide 5×10^−3 M, then 18 h incubation, 30 min washing), the “ex vivo MRI enhancement after inhibition/competition with free peptide” value is on record as “very faint enhancement”. Also, in [9], the “ex vivo MRI enhancement of the sections” value was “strong but more delineated enhancement” and the “amount of Gd in the sections by ICP-MS (mean value)” value is 5-11 nmol/section. The “mean Gd concentration after washing” value in data set [9] (incubated 3 h or 18 h, after 30 min and 1 h of washing) was 1-8 nmol/section. Also, on human MMP-1 [4], the “inhibitory activity on MMP-1 (in words)” value is listed as “effective”. On human MMP-2 [6], the “inhibitory activity on MMP-2 (in words)” value is “effective”.

For the compound `O=C([O-])CN1CCN(CC(=O)[O-])CCN(CC(=O)O)CCN(CC(=O)[O-])CC1.[Gd+3]` [Gd-DOTA, gadoteric acid], the “half-life of elimination in plasma” value in the data set on ApoE-KO mice (i.v.) was 15 min. Further, the “enhancement of atherosclerotic human sections (MRI ex vivo and Gd quantification)” value in data set [8] was “not”. Moreover, the “Gd concentration after first washing step (mean value)” value in data set [9] (after 30 min washing) is listed as below 0.8 nmol/section. In data set [9], the “ex vivo MRI enhancement of the sections” value is listed as “strong, but diffuse, enhancement” and the “amount of Gd in the sections by ICP-MS (mean value)” value was 3-9 nmol/section.
